The text below walks through data of article PMC6273472, “Design, Synthesis and Biological Evaluation of 6-(2,6-Dichloro-3,5-dimethoxyphenyl)-4-substituted-1H-indazoles as Potent Fibroblast Growth Factor Receptor Inhibitors” (Molecules, 2016).

In one data set the target is FGFR1 (Homo sapiens, UniProt P11362). Kind of data set: ELISA kinase assay (FGFR1 enzymatic assay). The format is biochemical. The following applies: for inhibition at 0.01 µM: 0.01 μmol/L compound; for inhibition at 0.01 µM / inhibition at 0.1 µM / inhibition at 1 µM: read-out: Enzyme Inhibition (%); for inhibition at 0.1 µM: 0.1 μmol/L compound; for inhibition at 1 µM: 1 μmol/L compound; for IC50: mean ± SD, two separate experiments. The protocol:
The effects of compounds on the activities of FGFR1 kinases were determined using enzyme-linked immunosorbent assays (ELISAs) with purified recombinant proteins. Briefly, 20 μg/mL poly (Glu, Tyr)4:1 (Sigma, St. Louis, MO, USA) was pre-coated in 96-well plates as a substrate. A 50-μL aliquot of 10 μmol/L ATP solution diluted in kinase reaction buffer (50 mmol/L HEPES [pH 7.4], 50 mmol/L MgCl2, 0.5 mmol/L MnCl2, 0.2 mmol/L Na3VO4, and 1 mmol/L DTT) was added to each well; 1 μL of various concentrations of compounds diluted in 1% DMSO (v/v) (Sigma) were then added to each reaction well. DMSO (1%, v/v) was used as the negative control. The kinase reaction was initiated by the addition of purified tyrosine kinase proteins diluted in 49 μL of kinase reaction buffer. After incubation for 60 min at 37 °C, the plate was washed three times with phosphate-buffered saline (PBS) containing 0.1% Tween 20 (T-PBS). Anti-phosphotyrosine (PY99) antibody (100 μL; 1:500, diluted in 5 mg/mL BSA T-PBS) was then added. After a 30-min incubation at 37 °C, the plate was washed three times, and 100 μL horseradish peroxidase-conjugated goat anti-mouse IgG (1:2000, diluted in 5 mg/mL BSA T-PBS) was added. The plate was then incubated at 37 °C for 30 min and washed 3 times. A 100-μL aliquot of a solution containing 0.03% H2O2 and 2 mg/mL o-phenylenediamine in 0.1 mol/L citrate buffer (pH 5.5) was added. The reaction was terminated by the addition of 50 μL of 2 mol/L H2SO4 as the color changed, and the plate was analyzed using a multi-well spectrophotometer (SpectraMAX 190, Molecular Devices, Palo Alto, CA, USA) at 490 nm. […] The IC50 values were calculated from the inhibition curves in two separate experiments.
A general note: ELISA stands for enzyme-linked immunosorbent assay.

Chain of FGFR1 (P11362 22-822): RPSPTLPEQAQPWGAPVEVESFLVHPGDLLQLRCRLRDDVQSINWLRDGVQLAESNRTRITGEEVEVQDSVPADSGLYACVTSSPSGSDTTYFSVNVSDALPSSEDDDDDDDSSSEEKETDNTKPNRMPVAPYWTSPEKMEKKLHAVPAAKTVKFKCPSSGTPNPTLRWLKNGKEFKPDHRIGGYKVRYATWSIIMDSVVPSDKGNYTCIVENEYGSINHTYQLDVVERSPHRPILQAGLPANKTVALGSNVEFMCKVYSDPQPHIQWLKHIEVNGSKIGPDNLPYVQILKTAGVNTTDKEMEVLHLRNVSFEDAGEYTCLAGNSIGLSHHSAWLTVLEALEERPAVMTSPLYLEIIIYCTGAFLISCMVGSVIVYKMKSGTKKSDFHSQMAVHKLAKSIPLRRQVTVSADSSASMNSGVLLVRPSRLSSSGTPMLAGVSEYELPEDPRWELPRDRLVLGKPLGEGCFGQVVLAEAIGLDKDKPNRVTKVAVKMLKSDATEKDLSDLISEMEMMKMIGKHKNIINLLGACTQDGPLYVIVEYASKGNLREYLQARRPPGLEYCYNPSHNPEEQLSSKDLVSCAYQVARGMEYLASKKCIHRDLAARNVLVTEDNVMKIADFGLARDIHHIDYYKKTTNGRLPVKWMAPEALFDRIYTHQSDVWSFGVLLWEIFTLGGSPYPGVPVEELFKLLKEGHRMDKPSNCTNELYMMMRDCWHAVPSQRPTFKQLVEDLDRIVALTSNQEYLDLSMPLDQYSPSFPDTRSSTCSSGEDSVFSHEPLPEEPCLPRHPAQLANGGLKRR

For orientation: inhibition means the share of the control response that was lost under treatment. Broadly, the IC50 is the concentration that inhibits the measured activity by half. A low value points to greater potency. Broadly, the melting point is the temperature, or range, at which the solid turns liquid. As for `COc1cc(OC)c(Cl)c(-c2cc(C(=O)Nc3ccccc3)c3cn[nH]c3c2)c1Cl` [Compound 10a, 6-(2,6-Dichloro-3,5-dimethoxyphenyl)-N-phenyl-1H-indazole-4-carboxamide], the melting point was 115 to 117 °C. Moreover, at FGFR1, the inhibition at 0.01 µM was found to be 27.3%, the inhibition at 0.1 µM amounted to 58.8%, the inhibition at 1 µM is 84.1% and the IC50 was 69.1 ± 19.8 nM.

For the compound `COc1cc(OC)c(Cl)c(-c2cc(C(=O)Nc3cccc(C(C)=O)c3)c3cn[nH]c3c2)c1Cl` [Compound 10b, N-(3-Acetylphenyl)-6-(2,6-dichloro-3,5-dimethoxyphenyl)-1H-indazole-4-carboxamide], at FGFR1, the inhibition at 0.1 µM amounted to 76.4% and the inhibition at 1 µM is 82.4%.

For the compound `COc1cc(OC)c(Cl)c(-c2cc(C(=O)Nc3ccc(C(C)=O)cc3)c3cn[nH]c3c2)c1Cl` [Compound 10c, N-(4-Acetylphenyl)-6-(2,6-dichloro-3,5-dimethoxyphenyl)-1H-indazole-4-carboxamide], on FGFR1, the inhibition at 0.1 µM is 32.2% and the inhibition at 1 µM was determined as 52.9%.

Turning to `COc1cccc(NC(=O)c2cc(-c3c(Cl)c(OC)cc(OC)c3Cl)cc3[nH]ncc23)c1` [Compound 10d, 6-(2,6-Dichloro-3,5-dimethoxyphenyl)-N-(3-methoxyphenyl)-1H-indazole-4-carboxamide], on FGFR1, the inhibition at 0.1 µM amounted to 57% and the inhibition at 1 µM stood at 78.4%.

Turning to `COc1ccc(NC(=O)c2cc(-c3c(Cl)c(OC)cc(OC)c3Cl)cc3[nH]ncc23)cc1` [Compound 10e, 6-(2,6-Dichloro-3,5-dimethoxyphenyl)-N-(4-methoxyphenyl)-1H-indazole-4-carboxamide], on FGFR1, the inhibition at 0.1 µM was 11.9% and the inhibition at 1 µM stood at 68.5%.

As for `COc1cccc(NC(=O)c2cc(-c3c(Cl)c(OC)cc(OC)c3Cl)cc3[nH]ncc23)n1` [Compound 11a, 6-(2,6-Dichloro-3,5-dimethoxyphenyl)-N-(6-methoxypyridin-2-yl)-1H-indazole-4-carboxamide], at FGFR1, the inhibition at 0.1 µM turned out to be 47.2% and the inhibition at 1 µM came to 79.2%.

For `COc1cc(NC(=O)c2cc(-c3c(Cl)c(OC)cc(OC)c3Cl)cc3[nH]ncc23)ccn1` [Compound 11b, 6-(2,6-Dichloro-3,5-dimethoxyphenyl)-N-(2-methoxypyridin-4-yl)-1H-indazole-4-carboxamide], at FGFR1, the inhibition at 0.1 µM is 49.5% and the inhibition at 1 µM is 84.3%.

In the case of `COc1ccnc(NC(=O)c2cc(-c3c(Cl)c(OC)cc(OC)c3Cl)cc3[nH]ncc23)c1` [Compound 11c, 6-(2,6-Dichloro-3,5-dimethoxyphenyl)-N-(4-methoxypyridin-2-yl)-1H-indazole-4-carboxamide], at FGFR1, the inhibition at 0.1 µM came out at 42.3% and the inhibition at 1 µM is 80%.

Consider `COc1cc(NC(=O)c2cc(-c3c(Cl)c(OC)cc(OC)c3Cl)cc3[nH]ncc23)ncn1` [Compound 11d, 6-(2,6-Dichloro-3,5-dimethoxyphenyl)-N-(6-methoxypyrimidin-4-yl)-1H-indazole-4-carboxamide], for which, at FGFR1, the inhibition at 0.1 µM was 43.1% and the inhibition at 1 µM amounted to 78.5%.

In the case of `COc1nccc(NC(=O)c2cc(-c3c(Cl)c(OC)cc(OC)c3Cl)cc3[nH]ncc23)n1` [Compound 11e, 6-(2,6-Dichloro-3,5-dimethoxyphenyl)-N-(2-methoxypyrimidin-4-yl)-1H-indazole-4-carboxamide], at FGFR1, the inhibition at 0.1 µM amounted to 31% and the inhibition at 1 µM turned out to be 57.4%.

As for `COC(=O)c1cccc(NC(=O)c2cc(-c3c(Cl)c(OC)cc(OC)c3Cl)cc3[nH]ncc23)c1` [Compound 12a, Methyl 3-(6-(2,6-dichloro-3,5-dimethoxyphenyl)-1H-indazole-4-carboxamido)benzoate], on FGFR1, the inhibition at 0.01 µM was 17.1% and the inhibition at 0.1 µM was 35.7%.

Compound `CNC(=O)c1cccc(NC(=O)c2cc(-c3c(Cl)c(OC)cc(OC)c3Cl)cc3[nH]ncc23)c1` [Compound 12b, 6-(2,6-Dichloro-3,5-dimethoxyphenyl)-N-(3-(methylcarbamoyl)phenyl)-1H-indazole-4-carboxamide] gave a melting point of 155 to 157 °C. Further, at FGFR1, the inhibition at 0.01 µM came to 42.1%, the inhibition at 0.1 µM was 62.3% and half-maximal inhibition (IC50) required 38.6 ± 0.2 nM.

`CCOC(=O)c1cccc(NC(=O)c2cc(-c3c(Cl)c(OC)cc(OC)c3Cl)cc3[nH]ncc23)c1` [Compound 12c, Ethyl 3-(6-(2,6-dichloro-3,5-dimethoxyphenyl)-1H-indazole-4-carboxamido)benzoate]: at FGFR1, the inhibition at 0.01 µM is 9.9% and the inhibition at 0.1 µM amounted to 36.8%.

For `COc1cc(OC)c(Cl)c(-c2cc(C(=O)Nc3cccc([N+](=O)[O-])c3)c3cn[nH]c3c2)c1Cl` [Compound 12d, 6-(2,6-Dichloro-3,5-dimethoxyphenyl)-N-(3-nitrophenyl)-1H-indazole-4-carboxamide], at FGFR1, the inhibition at 0.01 µM was found to be 17.4% and the inhibition at 0.1 µM was 31.6%.

Consider `COc1cc(OC)c(Cl)c(-c2cc(C(=O)Nc3cccc(N4CCN(C)C4=O)c3)c3cn[nH]c3c2)c1Cl` [Compound 12e, 6-(2,6-Dichloro-3,5-dimethoxyphenyl)-N-(3-(3-methyl-2-oxoimidazolidin-1-yl)phenyl)-1H-indazole-4-carboxamide], for which, on FGFR1, the inhibition at 0.01 µM was determined as 17.2% and the inhibition at 0.1 µM was 36.7%.

`COc1cc(OC)c(Cl)c(-c2cc(C(=O)Nc3cccc(N4CCOCC4)c3)c3cn[nH]c3c2)c1Cl` [Compound 12f, 6-(2,6-Dichloro-3,5-dimethoxyphenyl)-N-(3-morpholinophenyl)-1H-indazole-4-carboxamide] gave a melting point of 159 to 161 °C. At FGFR1, the inhibition at 0.01 µM was found to be 28.3%, the inhibition at 0.1 µM came out at 58.7% and the IC50 worked out at 54 ± 8.7 nM.

Take `COc1cc(OC)c(Cl)c(-c2cc(C(=O)Nc3cccc(N4CCNCC4)c3)c3cn[nH]c3c2)c1Cl` [Compound 12g, 6-(2,6-Dichloro-3,5-dimethoxyphenyl)-N-(3-(piperazin-1-yl)phenyl)-1H-indazole-4-carboxamide]: the melting point fell in the range of 221 to 223 °C. At FGFR1, the inhibition at 0.01 µM worked out at 45.1%, the inhibition at 0.1 µM turned out to be 60.9% and the IC50 is 78.8 ± 14.2 nM.

`CCN1CCN(c2cccc(NC(=O)c3cc(-c4c(Cl)c(OC)cc(OC)c4Cl)cc4[nH]ncc34)c2)CC1` [Compound 13b, 6-(2,6-Dichloro-3,5-dimethoxyphenyl)-N-(3-(4-ethylpiperazin-1-yl)phenyl)-1H-indazole-4-carboxamide]: at FGFR1, the inhibition at 0.01 µM turned out to be 13.7%, the inhibition at 0.1 µM amounted to 26.4% and 328 ± 65.7 nM corresponded to half-maximal inhibition (IC50).

On to `C=CCN1CCN(c2cccc(NC(=O)c3cc(-c4c(Cl)c(OC)cc(OC)c4Cl)cc4[nH]ncc34)c2)CC1` [Compound 13c, N-(3-(4-Allylpiperazin-1-yl)phenyl)-6-(2,6-dichloro-3,5-dimethoxyphenyl)-1H-indazole-4-carboxamide], for which, on FGFR1, the inhibition at 0.01 µM amounted to 35.7%, the inhibition at 0.1 µM is 41.3% and the IC50 is 464 ± 99.1 nM.

With `COc1cc(OC)c(Cl)c(-c2cc(C(=O)Nc3cccc(N4CCN(C(C)C)CC4)c3)c3cn[nH]c3c2)c1Cl` [Compound 13d, 6-(2,6-Dichloro-3,5-dimethoxyphenyl)-N-(3-(4-isopropylpiperazin-1-yl)phenyl)-1H-indazole-4-carboxamide], at FGFR1, the inhibition at 0.01 µM came to 7.2% and the inhibition at 0.1 µM was 18.5%.
